# Assay results from BindingDB's records for patent US20230339890 (Kineta, 2023).
# Molecular target: T1, Lanosterol 14-alpha demethylase (Homo sapiens, UniProt Q16850)
# T1 sequence (Q16850 whole entry): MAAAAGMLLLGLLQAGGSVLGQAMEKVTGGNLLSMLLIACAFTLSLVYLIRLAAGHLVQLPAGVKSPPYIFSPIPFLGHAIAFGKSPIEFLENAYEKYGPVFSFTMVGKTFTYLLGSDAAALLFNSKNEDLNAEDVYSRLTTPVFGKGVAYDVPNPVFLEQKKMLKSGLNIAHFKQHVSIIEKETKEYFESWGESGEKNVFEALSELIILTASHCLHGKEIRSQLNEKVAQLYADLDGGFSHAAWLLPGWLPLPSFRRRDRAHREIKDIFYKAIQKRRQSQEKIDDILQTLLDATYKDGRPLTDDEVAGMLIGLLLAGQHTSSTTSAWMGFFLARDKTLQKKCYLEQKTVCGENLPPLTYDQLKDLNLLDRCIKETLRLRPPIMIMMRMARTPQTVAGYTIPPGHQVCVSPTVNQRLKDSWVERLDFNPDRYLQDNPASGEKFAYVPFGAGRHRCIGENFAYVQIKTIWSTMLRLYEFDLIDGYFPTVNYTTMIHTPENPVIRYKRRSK
# Test: Inhibition of CYP51A1
# Excerpt: Method: Recombinant human CYP51A1 (lanosterol-14a-demethylase) enzyme was coexpressed with CYP reductase in bacterial membranes and the fluorescent substrate BOMCC (a nonnatural substrate that causes increases in fluorescence upon CYP51A1-dependent demethylation) was used to obtain 8-point dose concentration-response curves for each compound.
row,SMILES,IC50
1,"CCC(=O)N(CCc1ccc(C(F)(F)F)nc1)C[C@@H](O)c1cccnc1 [US20230339890, Compound 30]",> 1000 nM
2,"CCC(=O)N(C[C@@H](O)c1cccnc1)C1CCc2cc(Cl)c(Cl)cc2C1 (some centres undefined) [US20230339890, Compound 70]",< 100 nM
3,"CC(C)(C)OC(=O)NCCCCCN(C[C@@H](O)c1cccnc1)C(=O)Cc1ccc(C#N)c(Cl)c1 [US20230339890, Compound 142]",< 100 nM
4,"CC(C)(C)OC(=O)NCCCCN(C[C@@H](O)c1cccnc1)C(=O)Cc1ccc(C(F)(F)F)nc1 [US20230339890, Compound 144]",< 100 nM
